In PubChem BioAssay AID1224902:

System: PC3 prostate cancer viability, PrestoBlue fluorescence
Assay: antiproliferative effect, PC3 prostate cancer line – cell-based, mTOR inhibitor project, dose response (AID 1224902)

CCOC(Cn1nc(-c2ccc3oc(N)nc3c2)c2c(N)ncnc21)OCC
EC50: 37 nM
